Measurements reported in patent US20240165244A1 (Prelude Therapeutics Incorporated, priority 2022, published 2024).

Assays:
SMARCA2 = target: T1, SMARCA2 (Homo sapiens, UniProt P51531); assay: SMARCA2 HiBiT degradation assay in HeLa cells; assay type: cell-based; details: 18 hours, highest concentration 10 μM
T1 construct: SMARCA2-HiBiT knock-in Hela monoclonal cell (CS302366); host or cells: HeLa monoclonal cells with heterozygous HiBiT knock-in at the endogenous SMARCA2 locus
In short: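 Degradation was read as Nano-Glo HiBiT lytic luminescence (30-60 min, RT) and fitted to curves. Compounds in 3-fold dilutions up to 10 μM were applied for 18 h at 37 °C. Cells were 2500/well monoclonal HeLa with a heterozygous C-terminal HiBiT tag on SMARCA2.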

SMARCA4 = target: T2, SMARCA4 (Homo sapiens, UniProt P51532); assay: SMARCA4 HiBiT degradation assay in HeLa cells; assay type: cell-based; details: 18 hours, highest concentration 10 μM
T2 construct: SMARCA4-HiBiT knock-in Hela monoclonal cell (CS3023226); host or cells: HeLa monoclonal cells with heterozygous HiBiT knock-in at the endogenous SMARCA4 locus
In short: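 HeLa monoclonal cells with HiBiT knocked into SMARCA4 were seeded at 2500 cells/well, dosed with compound and incubated 18 hours at 37° C. HiBiT signal reported remaining SMARCA4 protein, and values came from curve fitting.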

T1 sequence (P51531 whole entry): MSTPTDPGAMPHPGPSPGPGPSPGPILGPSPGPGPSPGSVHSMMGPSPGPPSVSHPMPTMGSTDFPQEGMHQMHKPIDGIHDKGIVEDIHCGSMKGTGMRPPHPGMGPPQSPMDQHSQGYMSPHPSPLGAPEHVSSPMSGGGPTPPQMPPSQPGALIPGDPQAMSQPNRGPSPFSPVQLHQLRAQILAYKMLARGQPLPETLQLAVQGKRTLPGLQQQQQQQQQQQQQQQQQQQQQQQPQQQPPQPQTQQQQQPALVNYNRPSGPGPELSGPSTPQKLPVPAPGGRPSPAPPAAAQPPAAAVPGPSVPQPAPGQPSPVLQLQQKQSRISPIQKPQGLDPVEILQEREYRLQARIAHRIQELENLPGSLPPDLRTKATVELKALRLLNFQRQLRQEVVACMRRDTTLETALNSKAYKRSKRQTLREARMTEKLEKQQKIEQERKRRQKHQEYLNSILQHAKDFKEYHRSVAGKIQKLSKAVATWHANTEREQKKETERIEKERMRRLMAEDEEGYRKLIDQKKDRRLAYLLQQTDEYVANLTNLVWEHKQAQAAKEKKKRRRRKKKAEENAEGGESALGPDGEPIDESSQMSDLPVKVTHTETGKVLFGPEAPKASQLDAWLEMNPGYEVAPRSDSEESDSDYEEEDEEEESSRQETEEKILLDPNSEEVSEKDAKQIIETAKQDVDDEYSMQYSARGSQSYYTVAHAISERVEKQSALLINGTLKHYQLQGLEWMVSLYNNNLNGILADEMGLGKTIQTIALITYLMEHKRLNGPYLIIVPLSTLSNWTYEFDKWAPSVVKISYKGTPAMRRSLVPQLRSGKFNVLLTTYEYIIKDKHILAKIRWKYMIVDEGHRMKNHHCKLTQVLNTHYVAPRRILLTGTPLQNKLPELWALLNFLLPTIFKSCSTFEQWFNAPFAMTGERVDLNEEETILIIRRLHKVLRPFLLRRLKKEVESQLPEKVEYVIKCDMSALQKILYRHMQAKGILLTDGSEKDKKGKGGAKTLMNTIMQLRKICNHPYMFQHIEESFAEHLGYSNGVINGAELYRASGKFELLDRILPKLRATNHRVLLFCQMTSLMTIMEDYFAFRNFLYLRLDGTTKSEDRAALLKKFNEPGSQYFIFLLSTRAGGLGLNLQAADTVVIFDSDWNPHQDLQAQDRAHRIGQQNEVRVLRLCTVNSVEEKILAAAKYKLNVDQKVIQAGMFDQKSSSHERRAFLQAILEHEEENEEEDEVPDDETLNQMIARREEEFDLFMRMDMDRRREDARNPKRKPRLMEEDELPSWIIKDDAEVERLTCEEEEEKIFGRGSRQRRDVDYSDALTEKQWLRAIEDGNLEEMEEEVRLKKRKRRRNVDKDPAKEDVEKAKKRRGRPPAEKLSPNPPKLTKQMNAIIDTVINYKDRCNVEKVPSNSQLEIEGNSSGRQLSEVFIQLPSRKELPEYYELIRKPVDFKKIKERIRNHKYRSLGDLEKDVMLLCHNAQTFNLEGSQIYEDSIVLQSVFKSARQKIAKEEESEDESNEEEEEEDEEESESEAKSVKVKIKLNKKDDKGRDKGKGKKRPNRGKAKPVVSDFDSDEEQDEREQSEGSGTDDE
T2 sequence (P51532 whole entry): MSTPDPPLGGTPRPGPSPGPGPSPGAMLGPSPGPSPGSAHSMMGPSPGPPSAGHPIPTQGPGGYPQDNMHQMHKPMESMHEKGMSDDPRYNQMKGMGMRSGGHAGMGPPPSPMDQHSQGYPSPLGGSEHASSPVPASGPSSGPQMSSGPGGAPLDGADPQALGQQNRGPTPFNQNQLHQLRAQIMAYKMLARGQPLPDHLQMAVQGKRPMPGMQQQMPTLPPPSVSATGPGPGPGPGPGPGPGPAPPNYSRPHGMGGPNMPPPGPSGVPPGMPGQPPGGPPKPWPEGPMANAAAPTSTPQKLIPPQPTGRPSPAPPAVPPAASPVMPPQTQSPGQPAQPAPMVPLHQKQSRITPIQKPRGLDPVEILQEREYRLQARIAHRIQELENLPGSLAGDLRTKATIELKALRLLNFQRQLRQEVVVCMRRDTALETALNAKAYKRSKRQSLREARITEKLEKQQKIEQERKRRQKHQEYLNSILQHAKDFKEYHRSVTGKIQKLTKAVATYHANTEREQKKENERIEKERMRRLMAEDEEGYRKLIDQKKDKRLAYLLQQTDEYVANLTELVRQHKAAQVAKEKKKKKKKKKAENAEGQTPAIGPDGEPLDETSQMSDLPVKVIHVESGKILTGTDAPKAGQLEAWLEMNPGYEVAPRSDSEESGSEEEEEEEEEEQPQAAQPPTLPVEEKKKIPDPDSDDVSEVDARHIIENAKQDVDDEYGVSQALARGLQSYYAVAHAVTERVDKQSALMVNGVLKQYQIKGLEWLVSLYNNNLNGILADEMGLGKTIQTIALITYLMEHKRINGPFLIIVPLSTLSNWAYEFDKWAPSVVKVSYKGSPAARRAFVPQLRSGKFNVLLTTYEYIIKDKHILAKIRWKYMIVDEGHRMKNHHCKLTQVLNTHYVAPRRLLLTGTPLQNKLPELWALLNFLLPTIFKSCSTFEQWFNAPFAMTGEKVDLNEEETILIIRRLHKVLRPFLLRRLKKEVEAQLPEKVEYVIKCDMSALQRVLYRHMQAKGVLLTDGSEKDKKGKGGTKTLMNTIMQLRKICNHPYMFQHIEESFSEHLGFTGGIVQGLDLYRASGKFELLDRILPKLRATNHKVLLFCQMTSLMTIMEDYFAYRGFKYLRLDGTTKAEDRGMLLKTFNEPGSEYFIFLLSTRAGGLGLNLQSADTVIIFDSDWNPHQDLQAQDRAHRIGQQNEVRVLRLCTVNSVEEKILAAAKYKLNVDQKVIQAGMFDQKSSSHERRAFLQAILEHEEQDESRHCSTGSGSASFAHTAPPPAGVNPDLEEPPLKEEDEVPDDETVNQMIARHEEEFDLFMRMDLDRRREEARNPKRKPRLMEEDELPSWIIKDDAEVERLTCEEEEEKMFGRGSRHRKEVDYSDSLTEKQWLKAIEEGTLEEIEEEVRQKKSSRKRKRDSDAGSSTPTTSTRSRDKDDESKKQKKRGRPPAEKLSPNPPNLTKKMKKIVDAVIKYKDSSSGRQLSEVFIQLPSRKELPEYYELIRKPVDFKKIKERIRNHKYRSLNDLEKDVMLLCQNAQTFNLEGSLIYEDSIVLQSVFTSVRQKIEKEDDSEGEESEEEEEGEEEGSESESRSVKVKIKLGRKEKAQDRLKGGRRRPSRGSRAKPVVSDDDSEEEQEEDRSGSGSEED

Row | SMILES | DC50 (SMARCA2) | Dmax (SMARCA2) | DC50 (SMARCA4) | Dmax (SMARCA4)
1 | Cc1nc(O[C@@H]2C[C@@H]3CNc4nnc(-c5cc(F)cc(F)c5O)cc4N3C2)ccc1CN1CCN(c2ccc3c(c2)C(=O)N([C@H]2CCC(=O)NC2=O)C3)CC1 [Example 30, (S)-3-(6-(4-((6-(((6aR,8R)-2-(3,5-difluoro-2-hydroxyphenyl)-5,6,6a,7,8,9-hexahydropyrrolo[1′,2′:4,5]pyrazino[2,3-c]pyridazin-8-yl)oxy)-2-methylpyridin-3-yl)methyl)piperazin-1-yl)-1-oxoisoindolin-2-yl)piperidine-2,6-dione] | < 100 nM | > 75% | < 100 nM | > 75%
2 | CCc1cc(CN2CCN(c3ccc4c(c3)C(=O)N([C@H]3CCC(=O)NC3=O)C4)CC2)cnc1O[C@H]1CN2c3cc(-c4cccc(F)c4O)nnc3NC[C@]2(C(F)F)C1 [Example 47, (S)-3-(6-(4-((6-(((6aS,8R)-6a-(difluoromethyl)-2-(3-fluoro-2-hydroxyphenyl)-5,6,6a,7,8,9-hexahydropyrrolo [1′,2′:4,5]pyrazino[2,3-c]pyridazin-8-yl)oxy)-5-ethylpyridin-3-yl)methyl)piperazin-1-yl)-1-oxoisoindolin-2-yl)piperidine-2,6-dione] | < 100 nM | > 75% | < 100 nM | > 75%
3 | O=C1CCC(N2Cc3ccc(N4CCN(Cc5ccc(O[C@@H]6C[C@@H]7CNc8nnc(-c9cc(F)cc(F)c9O)cc8N7C6)cc5)CC4)cc3C2=O)C(=O)N1 (stereo partly drawn) [Example 1, 3-(6-(4-(4-(((6aR,8R)-2-(3,5-difluoro-2-hydroxyphenyl)-5,6,6a,7,8,9-hexa-hydropyrrolo[1′,2′:4,5]pyrazino[2,3-c]pyridazin-8-yl)oxy)benzyl)piperazin-1-yl)-1-oxoisoindolin-2-yl)piperidine-2,6-dione] | < 100 nM | > 75% | < 100 nM | > 75%
4 | Cc1cc(O[C@@H]2C[C@@H]3CNc4nnc(-c5cc(F)cc(F)c5O)cc4N3C2)cc(C)c1CN1CCN(c2ccc3c(c2)C(=O)N(C2CCC(=O)NC2=O)C3)CC1 (stereo partly drawn) [Example 17, 3-(6-(4-(4-(((6aR,8R)-2-(3,5-difluoro-2-hydroxyphenyl)-5,6,6a,7,8,9-hexahydropyrrolo[1′,2′:4,5]pyrazino[2,3-c]pyridazin-8-yl)oxy)-2,6-dimethylbenzyl)piperazin-1-yl)-1-oxoisoindolin-2-yl)piperidine-2,6-dione] | < 100 nM | > 75% | > 1000 nM | < 50%
5 | CC[C@@]12CNc3nnc(-c4cccc(F)c4O)cc3N1C[C@H](Oc1cnc(CN3CCC(c4ccc5c(c4)C(=O)N([C@H]4CCC(=O)NC4=O)C5)CC3)c(F)c1)C2 [Example 101, (S)-3-(6-(1-((5-(((6aR,8R)-6a-ethyl-2-(3-fluoro-2-hydroxyphenyl)-5,6,6a,7,8,9-hexahydropyrrolo[1′,2′:4,5]pyrazino[2,3-c]pyridazin-8-yl)oxy)-3-fluoropyridin-2-yl)methyl)piperidin-4-yl)-1-oxoisoindolin-2-yl)piperidine-2,6-dione] | < 100 nM | > 75% | 100 to 1000 nM | < 50%
6 | Cc1nc(O[C@H]2CN3c4cc(-c5cccc(F)c5O)nnc4NC[C@]3(C(F)F)C2)nc(C)c1CN1CCN(c2ccc3c(c2)C(=O)N(C2CCC(=O)NC2=O)C3)CC1 (stereo partly drawn) [Example 41, 3-(6-(4-((2-(((6aS,8R)-6a-(Difluoromethyl)-2-(3-fluoro-2-hydroxy-phenyl)-5,6,6a,7,8,9-hexahydropyrrolo [1′,2′:4,5]pyrazino[2,3-c]pyridazin-8-yl)oxy)-4,6-dimethylpyrimidin-5-yl)methyl)piperazin-1-yl)-1-oxoisoindolin-2-yl)piperidine-2,6-dione] | < 100 nM | > 75% | 100 to 1000 nM | < 50%
7 | O=C1CC[C@H](N2Cc3ccc(N4CCN(Cc5ccc(O[C@H]6CN7c8cc(-c9cccc(F)c9O)nnc8NC[C@@]7(C(F)F)C6)nc5)CC4)cc3C2=O)C(=O)N1 [Example 43, (S)-3-(6-(4-((6-(((6aR,8R)-6a-(difluoromethyl)-2-(3-fluoro-2-hydroxyphenyl)-5,6,6a,7,8,9-hexahydropyrrolo[1′,2′:4,5]pyrazino[2,3-c]pyridazin-8-yl)oxy)pyridin-3-yl)methyl)piperazin-1-yl)-1-oxoisoindolin-2-yl)piperidine-2,6-dione] | < 100 nM | > 75% | > 1000 nM | < 50%
8 | CCc1cc(CN2CCN(c3ccc4c(c3)C(=O)N([C@H]3CCC(=O)NC3=O)C4)CC2)cnc1O[C@H]1CN2c3cc(-c4cccc(F)c4O)nnc3NC[C@@]2(C(F)F)C1 [Example 44, (S)-3-(6-(4-((6-(((6aR,8R)-6a-(difluoromethyl)-2-(3-fluoro-2-hydroxyphenyl)-5,6,6a,7,8,9-hexahydropyrrolo[1′,2′:4,5]pyrazino[2,3-c]pyridazin-8-yl)oxy)-5-ethylpyridin-3-yl)methyl)piperazin-1-yl)-1-oxoisoindolin-2-yl)piperidine-2,6-dione] | < 100 nM | > 75% | 100 to 1000 nM | 
9 | O=C1CCC(N2Cc3ccc(N4CCN(Cc5ccc(S[C@@H]6C[C@@H]7CNc8nnc(-c9cc(F)cc(F)c9O)cc8N7C6)cc5)CC4)cc3C2=O)C(=O)N1 (stereo partly drawn) [Example 32] | < 100 nM | > 75% | < 100 nM | 50 to 75%
10 | Cc1nc(CN2CCN(c3ccc4c(c3)C(=O)N([C@H]3CCC(=O)NC3=O)C4)CC2)cnc1O[C@H]1CN2c3cc(-c4cccc(F)c4O)nnc3NC[C@@]2(CF)C1 [Example 64, (S)-3-(6-(4-((5-(((6aR,8R)-2-(3-fluoro-2-hydroxyphenyl)-6a-(fluoromethyl)-5,6,6a,7,8,9-hexahydropyrrolo[1′,2′:4,5]pyrazino[2,3-c]pyridazin-8-yl)oxy)-6-methylpyrazin-2-yl)methyl)piperazin-1-yl)-1-oxoisoindolin-2-yl)piperidine-2,6-dione] | < 100 nM | > 75% | 100 to 1000 nM | < 50%
11 | Cc1cc(O[C@@H]2C[C@@H]3CNc4nnc(-c5cc(F)cc(Cl)c5O)cc4N3C2)ccc1CN1CCN(c2ccc3c(c2)C(=O)N(C2CCC(=O)NC2=O)C3)CC1 (stereo partly drawn) [Example 19, 3-(6-(4-(4-(((6aR,8R)-2-(3-chloro-5-fluoro-2-hydroxyphenyl)-5,6,6a,7,8,9-hexahydropyrrolo[1′,2′:4,5]pyrazino[2,3-c]pyridazin-8-yl)oxy)-2-methylbenzyl)piperazin-1-yl)-1-oxoisoindolin-2-yl)piperidine-2,6-dione] | < 100 nM | > 75% | < 100 nM | 50 to 75%
12 | O=C1CCC(N2Cc3ccc(N4CCN(Cc5ccc(O[C@@H]6C[C@@H]7CNc8nnc(-c9cccc(F)c9O)cc8N7C6)cc5)CC4)cc3C2=O)C(=O)N1 (stereo partly drawn) [Example 5, 3-(6-(4-(4-(((6aR,8R)-2-(3-fluoro-2-hydroxyphenyl)-5,6,6a,7,8,9-hexahydropyrrolo[1′,2′:4,5]pyrazino[2,3-c]pyridazin-8-yl)oxy)benzyl)piperazin-1-yl)-1-oxoisoindolin-2-yl)piperidine-2,6-dione] | < 100 nM | > 75% | < 100 nM | > 75%
13 | Cc1cc(O[C@H]2CN3c4cc(-c5cccc(F)c5O)nnc4NC[C@@]3(CF)C2)ncc1CN1CCC(c2ccc3c(c2)C(=O)N([C@H]2CCC(=O)NC2=O)C3)CC1 [Example 93, (S)-3-(6-(1-((6-(((6aR,8R)-2-(3-fluoro-2-hydroxyphenyl)-6a-(fluoromethyl)-5,6,6a,7,8,9-hexahydropyrrolo [1′,2′:4,5]pyrazino[2,3-c]pyridazin-8-yl)oxy)-4-methylpyridin-3-yl)methyl)piperidin-4-yl)-1-oxoisoindolin-2-yl)piperidine-2,6-dione] | < 100 nM | > 75% | > 1000 nM | < 50%
14 | Cc1cc(S[C@@H]2C[C@@H]3CNc4nnc(-c5cc(F)cc(F)c5O)cc4N3C2)ncc1CN1CCN(c2ccc3c(c2)C(=O)N([C@H]2CCC(=O)NC2=O)C3)CC1 [Example 38, (S)-3-(6-(4-((6-(((6aR,8R)-2-(3,5-difluoro-2-hydroxyphenyl)-5,6,6a,7,8,9-hexahydropyrrolo[1′,2′:4,5]pyrazino[2,3-c]pyridazin-8-yl)thio)-4-methylpyridin-3-yl)methyl)piperazin-1-yl)-1-oxoisoindolin-2-yl)piperidine-2,6-dione] | < 100 nM | > 75% | > 1000 nM | < 50%
15 | CC[C@@]12CNc3nnc(-c4cccc(C)c4O)cc3N1C[C@H](Oc1cnc(CN3CCC(c4ccc5c(c4)C(=O)N([C@H]4CCC(=O)NC4=O)C5)CC3)c(C)c1C)C2 [Example 95, (S)-3-(6-(1-((5-(((6aR,8R)-6a-ethyl-2-(2-hydroxy-3-methylphenyl)-5,6,6a,7,8,9-hexahydropyrrolo[1′,2′:4,5]pyrazino[2,3-c]pyridazin-8-yl)oxy)-3,4-dimethylpyridin-2-yl)methyl)piperidin-4-yl)-1-oxoisoindolin-2-yl)piperidine-2,6-dion] | < 100 nM | > 75% | > 1000 nM | < 50%
16 | O=C1CCC(N2Cc3ccc(N4CCN(Cc5ccc(O[C@@H]6C[C@@H]7CNc8nnc(-c9cc(F)cc(F)c9O)cc8N7C6)cc5OC(F)(F)F)CC4)cc3C2=O)C(=O)N1 (stereo partly drawn) [Example 24, 3-(6-(4-(4-(((6aR,8R)-2-(3,5-difluoro-2-hydroxyphenyl)-5,6,6a,7,8,9-hexahydropyrrolo[1′,2′:4,5]pyrazino[2,3-c]pyridazin-8-yl)oxy)-2-(trifluoromethoxy)benzyl)piperazin-1-yl)-1-oxoisoindolin-2-yl)piperidine-2,6-dione] | < 100 nM | 50 to 75% | > 1000 nM | < 50%
